Reference: ChEMBL document CHEMBL3817755, “Design, synthesis and biological evaluation of indazolepyrimidine based derivatives as anticancer agents with anti-angiogenic and antiproliferative activities” (Medchemcomm, 2016)

How the values were obtained:
[1] = Cytotoxicity against human PC3 cells after 72 hrs by SRB assay; settings: PC-3, 72 h
[2] = Antiangiogenic activity in human PC3 cells assessed as reduction in EGF levels at […] +/- […] uM after 72 hrs by ELISA relative to control; format: functional, PC-3; design: scale not given: the % may be the effect or the level left
[3] = Antiangiogenic activity in human PC3 cells assessed as reduction in leptin levels at […] +/- […] uM after 72 hrs by ELISA relative to control; format: functional, PC-3; design: scale not given: the % may be the effect or the level left
[4] = target: Vascular endothelial growth factor receptor 2 (Homo sapiens, UniProt P35968); experiment: Inhibition of VEGFR-2 (unknown origin) after 40 mins by Kinase-GloPlus luminescence assay
Sequence of Vascular endothelial growth factor receptor 2 (P35968 whole entry): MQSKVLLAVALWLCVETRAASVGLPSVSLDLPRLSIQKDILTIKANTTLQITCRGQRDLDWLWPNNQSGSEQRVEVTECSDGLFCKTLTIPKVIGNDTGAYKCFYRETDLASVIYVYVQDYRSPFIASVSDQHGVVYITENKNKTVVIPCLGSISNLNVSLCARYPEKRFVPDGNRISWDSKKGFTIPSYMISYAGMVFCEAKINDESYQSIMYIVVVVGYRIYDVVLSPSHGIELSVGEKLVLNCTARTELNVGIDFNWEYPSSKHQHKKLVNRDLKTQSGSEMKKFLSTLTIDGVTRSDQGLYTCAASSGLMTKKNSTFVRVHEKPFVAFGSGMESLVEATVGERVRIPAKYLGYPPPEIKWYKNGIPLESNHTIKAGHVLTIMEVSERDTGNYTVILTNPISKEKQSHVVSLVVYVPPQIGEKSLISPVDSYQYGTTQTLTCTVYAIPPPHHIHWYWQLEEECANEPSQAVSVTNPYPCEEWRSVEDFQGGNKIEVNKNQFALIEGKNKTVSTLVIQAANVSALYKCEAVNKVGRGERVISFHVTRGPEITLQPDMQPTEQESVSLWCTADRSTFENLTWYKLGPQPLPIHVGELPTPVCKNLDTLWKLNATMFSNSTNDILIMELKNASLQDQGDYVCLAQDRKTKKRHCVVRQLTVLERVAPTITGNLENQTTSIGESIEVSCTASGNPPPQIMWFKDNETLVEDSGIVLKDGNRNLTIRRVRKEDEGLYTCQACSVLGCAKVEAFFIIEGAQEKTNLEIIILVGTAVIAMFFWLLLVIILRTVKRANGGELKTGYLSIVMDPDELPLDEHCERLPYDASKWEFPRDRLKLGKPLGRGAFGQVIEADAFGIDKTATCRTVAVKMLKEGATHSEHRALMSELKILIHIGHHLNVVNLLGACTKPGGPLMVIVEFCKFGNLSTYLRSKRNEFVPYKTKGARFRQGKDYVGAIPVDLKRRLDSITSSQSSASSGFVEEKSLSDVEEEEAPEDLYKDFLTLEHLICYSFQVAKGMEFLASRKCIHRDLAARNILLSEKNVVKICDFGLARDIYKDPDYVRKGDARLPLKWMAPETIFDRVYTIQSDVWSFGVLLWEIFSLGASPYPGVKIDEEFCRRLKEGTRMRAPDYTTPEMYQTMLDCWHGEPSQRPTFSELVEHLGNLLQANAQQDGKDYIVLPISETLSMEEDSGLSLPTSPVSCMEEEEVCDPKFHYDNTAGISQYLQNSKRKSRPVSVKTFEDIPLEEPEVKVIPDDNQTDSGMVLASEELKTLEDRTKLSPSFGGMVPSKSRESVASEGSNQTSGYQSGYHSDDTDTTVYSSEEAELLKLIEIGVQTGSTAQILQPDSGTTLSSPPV

[5] = system: K562; experiment: Growth inhibition of human K562 cells after 48 hrs by SRB assay; format: functional; settings: K562, 48 h
[6] = Growth inhibition of human MOLT4 cells after 48 hrs by SRB assay; format: functional; settings: MOLT-4, 48 h
[7] = Growth inhibition of human RPMI8226 cells after 48 hrs by SRB assay; format: functional; settings: RPMI-8226, 48 h
[8] = system: SR; experiment: Growth inhibition of human SR cells after 48 hrs by SRB assay; format: functional; settings: for CC50: read-out: LC50 (the source's name)
[9] = system: A549; experiment: Growth inhibition of human A549/ATCC cells after 48 hrs by SRB assay; format: functional; settings: A549, 48 h; for CC50: read-out: LC50 (the source's name)
[10] = system: EKVX; experiment: Growth inhibition of human EKVX cells after 48 hrs by SRB assay; format: functional; settings: for CC50: read-out: LC50 (the source's name)
[11] = Growth inhibition of human HOP62 cells after 48 hrs by SRB assay; format: functional; settings: HOP-62, 48 h
[12] = system: NCI-H226; experiment: Growth inhibition of human NCI-H226 cells after 48 hrs by SRB assay; format: functional; settings: NCI-H226, 48 h; for CC50: read-out: LC50 (the source's name)
[13] = system: NCI-H460; experiment: Growth inhibition of human NCI-H460 cells after 48 hrs by SRB assay; format: functional; settings: NCI-H460, 48 h
[14] = system: NCI-H522; experiment: Growth inhibition of human NCI-H522 cells after 48 hrs by SRB assay; format: functional; settings: NCI-H522, 48 h
[15] = Growth inhibition of human HCC2998 cells after 48 hrs by SRB assay; format: functional; settings: HCC 2998, 48 h; for CC50: read-out: LC50 (the source's name)
[16] = Growth inhibition of human HCT15 cells after 48 hrs by SRB assay; format: functional; settings: HCT-15, 48 h
[17] = system: KM12; experiment: Growth inhibition of human KM12 cells after 48 hrs by SRB assay; format: functional; settings: KM12, 48 h; for CC50: read-out: LC50 (the source's name)
[18] = Growth inhibition of human SW620 cells after 48 hrs by SRB assay; format: functional; settings: SW-620, 48 h; for CC50: read-out: LC50 (the source's name)
[19] = Growth inhibition of human SF268 cells after 48 hrs by SRB assay; format: functional; settings: SF-268, 48 h; for CC50: read-out: LC50 (the source's name)
[20] = Growth inhibition of human SF295 cells after 48 hrs by SRB assay; format: functional; settings: SF-295, 48 h
[21] = Growth inhibition of human SNB75 cells after 48 hrs by SRB assay; format: functional; settings: SNB-75, 48 h
[22] = system: U-251; experiment: Growth inhibition of human U251 cells after 48 hrs by SRB assay; format: functional; settings: U-251, 48 h; for CC50: read-out: LC50 (the source's name)
[23] = system: MDA-MB-435; experiment: Growth inhibition of human MDA-MB-435 cells after 48 hrs by SRB assay; format: functional; settings: MDA-MB-435, 48 h
[24] = Growth inhibition of human OVCAR3 cells after 48 hrs by SRB assay; format: functional; settings: OVCAR-3, 48 h; for CC50: read-out: LC50 (the source's name)
[25] = Growth inhibition of human OVCAR4 cells after 48 hrs by SRB assay; format: functional; settings: OVCAR-4, 48 h; for CC50: read-out: LC50 (the source's name)
[26] = Growth inhibition of human OVCAR8 cells after 48 hrs by SRB assay; format: functional; settings: OVCAR-8, 48 h; for CC50: read-out: LC50 (the source's name)
[27] = system: 786-0; experiment: Growth inhibition of human 786-0 cells after 48 hrs by SRB assay; format: functional; settings: 786-0, 48 h; for CC50: read-out: LC50 (the source's name)
[28] = Growth inhibition of human Caki1 cells after 48 hrs by SRB assay; format: functional; settings: CAKI-1, 48 h; for CC50: read-out: LC50 (the source's name)
[29] = Growth inhibition of human RXF393 cells after 48 hrs by SRB assay; format: functional; settings: RXF 393, 48 h
[30] = Growth inhibition of human PC3 cells after 48 hrs by SRB assay; format: functional; settings: PC-3, 48 h
[31] = Growth inhibition of human DU145 cells after 48 hrs by SRB assay; format: functional; settings: DU-145, 48 h
[32] = system: MCF7; experiment: Growth inhibition of human MCF7 cells after 48 hrs by SRB assay; format: functional; settings: MCF7, 48 h; for CC50: read-out: LC50 (the source's name)
[33] = Growth inhibition of human Hs 578T cells after 48 hrs by SRB assay; format: functional; settings: for CC50: read-out: LC50 (the source's name)
[34] = system: T47D; experiment: Growth inhibition of human T47D cells after 48 hrs by SRB assay; format: functional
[35] = target: Aurora kinase A (Homo sapiens) (UniProt O14965); experiment: Inhibition of Aurora A (unknown origin) at 10 uM
Sequence of Aurora kinase A (Homo sapiens) (O14965 whole entry): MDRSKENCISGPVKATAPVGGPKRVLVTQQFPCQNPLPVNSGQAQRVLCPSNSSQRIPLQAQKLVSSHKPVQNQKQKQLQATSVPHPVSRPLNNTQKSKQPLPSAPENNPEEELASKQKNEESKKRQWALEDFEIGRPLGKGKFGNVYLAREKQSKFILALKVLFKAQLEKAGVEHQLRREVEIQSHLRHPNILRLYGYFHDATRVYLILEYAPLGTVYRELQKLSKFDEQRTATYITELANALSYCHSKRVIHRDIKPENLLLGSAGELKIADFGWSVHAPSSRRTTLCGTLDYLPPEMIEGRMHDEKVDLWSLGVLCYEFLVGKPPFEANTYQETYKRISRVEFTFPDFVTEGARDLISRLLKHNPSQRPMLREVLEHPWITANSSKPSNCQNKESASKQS

NS(=O)(=O)c1ccc(Nc2nccc(Nc3ccc4[nH]ncc4c3)n2)cc1
IC50 [1]: 33.8 µM
Activity [2]: 34.6%
Activity [3]: 24.5%

COc1ccc(Nc2nccc(Nc3ccc4[nH]ncc4c3)n2)cc1
IC50 [4]: 0.117 µM
GI50 [5]: 2.1 µM
LC50 [5]: > 100 µM
TGI [5]: 4.67 µM
GI50 [6]: 1.55 µM
LC50 [6]: > 100 µM
TGI [6]: 4.67 µM
GI50 [7]: 1.99 µM
LC50 [7]: > 100 µM
TGI [7]: 4.67 µM
GI50 [8]: 1.75 µM
TGI [8]: 4.67 µM
CC50 [8]: > 100 µM
GI50 [9]: 3.46 µM
TGI [9]: 14.3 µM
CC50 [9]: 78.8 µM
GI50 [10]: 5 µM
TGI [10]: 17.9 µM
CC50 [10]: 42.3 µM
GI50 [11]: 2.27 µM
LC50 [11]: 19.4 µM
TGI [11]: 5.76 µM
GI50 [12]: 2.3 µM
TGI [12]: 5.77 µM
CC50 [12]: > 100 µM
GI50 [13]: 2.7 µM
LC50 (50% lethal concentration) [13]: > 100 µM
TGI [13]: 38.2 µM
GI50 [14]: 1.86 µM
LC50 [14]: 15.6 µM
TGI [14]: 4.77 µM
GI50 [15]: 2.88 µM
TGI [15]: 8.05 µM
CC50 [15]: 27.6 µM
GI50 [16]: 1.9 µM
LC50 [16]: 9.61 µM
TGI [16]: 4.28 µM
GI50 [17]: 3.45 µM
TGI [17]: 24.2 µM
CC50 [17]: > 100 µM
GI50 [18]: 3.31 µM
TGI [18]: > 100 µM
CC50 [18]: > 100 µM
GI50 [19]: 4.2 µM
TGI [19]: 28.6 µM
CC50 [19]: > 100 µM
GI50 [20]: 3.78 µM
LC50 (concentration killing 50% of cells) [20]: 37.1 µM
TGI [20]: 13.8 µM
GI50 [21]: 4.58 µM
LC50 [21]: 51.7 µM
TGI [21]: 20.3 µM
GI50 [22]: 3.61 µM
TGI [22]: 13.6 µM
CC50 [22]: 36.9 µM
GI50 [23]: 2.1 µM
LC50 [23]: 20.1 µM
TGI [23]: 5.7 µM
GI50 [24]: 3.15 µM
TGI [24]: 10.6 µM
CC50 [24]: 44 µM
GI50 [25]: 2.99 µM
TGI [25]: 11.8 µM
CC50 [25]: 55.6 µM
GI50 [26]: 2.24 µM
TGI [26]: 5.39 µM
CC50 [26]: > 100 µM
GI50 [27]: 1.74 µM
TGI [27]: 4.75 µM
CC50 [27]: 16.1 µM
GI50 [28]: 2.22 µM
TGI [28]: 14.9 µM
CC50 [28]: 38.6 µM
GI50 [29]: 1.98 µM
LC50 (50% lethal concentration) [29]: 24.3 µM
TGI [29]: 6.45 µM
GI50 [30]: 2.21 µM
LC50 [30]: 50.4 µM
TGI [30]: 7.2 µM
GI50 [31]: 3.31 µM
LC50 [31]: 41.7 µM
TGI [31]: 12.9 µM
GI50 [32]: 2.05 µM
TGI [32]: 5.36 µM
CC50 [32]: > 100 µM
GI50 [33]: 5.02 µM
TGI [33]: > 100 µM
CC50 [33]: > 100 µM
GI50 [34]: 1.77 µM
LC50 (concentration killing 50% of cells) [34]: 97.8 µM
TGI [34]: 5.24 µM
inhibition [35]: 91%

COc1cccc(Nc2nccc(Nc3ccc4[nH]ncc4c3)n2)c1
IC50 [4]: 0.081 µM
GI50 [5]: 1.3 µM
LC50 [5]: 7.13 µM
TGI [5]: 3.89 µM
GI50 [6]: 0.52 µM
LC50 [6]: 28.4 µM
TGI [6]: 2.83 µM
GI50 [7]: 1.36 µM
LC50 [7]: 50.1 µM
TGI [7]: 4.19 µM
GI50 [8]: 1.34 µM
TGI [8]: 4.93 µM
CC50 [8]: 20.6 µM
GI50 [9]: 1.71 µM
TGI [9]: 3.74 µM
CC50 [9]: 8.22 µM
GI50 [10]: 1.64 µM
TGI [10]: 4.09 µM
CC50 [10]: 10.5 µM
GI50 [11]: 1.71 µM
LC50 [11]: 8.36 µM
TGI [11]: 3.78 µM
GI50 [12]: 1.82 µM
TGI [12]: 4.46 µM
CC50 [12]: 14.8 µM
GI50 [13]: 1.64 µM
LC50 (50% lethal concentration) [13]: 11.5 µM
TGI [13]: 4.17 µM
GI50 [14]: 1.48 µM
LC50 [14]: 5.54 µM
TGI [14]: 2.86 µM
GI50 [15]: 1.79 µM
TGI [15]: 3.36 µM
CC50 [15]: 6.29 µM
GI50 [16]: 1.21 µM
LC50 [16]: 7.01 µM
TGI [16]: 2.91 µM
GI50 [17]: 1.64 µM
TGI [17]: 4.81 µM
CC50 [17]: 17.4 µM
GI50 [18]: 2.41 µM
TGI [18]: 6.13 µM
CC50 [18]: 21 µM
GI50 [19]: 1.86 µM
TGI [19]: 5.89 µM
CC50 [19]: 22.5 µM
GI50 [20]: 1.66 µM
LC50 (concentration killing 50% of cells) [20]: 6.04 µM
TGI [20]: 3.17 µM
GI50 [21]: 1.39 µM
LC50 [21]: 7.08 µM
TGI [21]: 3.13 µM
GI50 [22]: 1.58 µM
TGI [22]: 3.18 µM
CC50 [22]: 6.39 µM
GI50 [23]: 1.49 µM
LC50 [23]: 6.78 µM
TGI [23]: 3.18 µM
GI50 [24]: 1.58 µM
TGI [24]: 4.07 µM
CC50 [24]: 11.1 µM
GI50 [25]: 1.46 µM
TGI [25]: 4.03 µM
CC50 [25]: 12.5 µM
GI50 [26]: 1.67 µM
TGI [26]: 4.39 µM
CC50 [26]: 13.4 µM
GI50 [27]: 1.46 µM
TGI [27]: 2.91 µM
CC50 [27]: 5.82 µM
GI50 [28]: 0.99 µM
TGI [28]: 2.51 µM
CC50 [28]: 6.33 µM
GI50 [29]: 1.06 µM
LC50 (50% lethal concentration) [29]: 5.1 µM
TGI [29]: 2.33 µM
GI50 [30]: 1.34 µM
LC50 [30]: 7.23 µM
TGI [30]: 3.12 µM
GI50 [31]: 1.3 µM
LC50 [31]: 6.24 µM
TGI [31]: 2.85 µM
GI50 [32]: 1.26 µM
TGI [32]: 3.11 µM
CC50 [32]: 7.53 µM
GI50 [33]: 1.79 µM
TGI [33]: 4.61 µM
CC50 [33]: 15.2 µM
GI50 [34]: 1.05 µM
LC50 (concentration killing 50% of cells) [34]: 9.23 µM
TGI [34]: 3.12 µM
inhibition [35]: 76%
